Non-standard residues stand in square brackets, D forms with d. Residues, ends and D or L forms follow the SMILES beside them. hArg = N=C(N)NCCCC[C@H](N)C(=O)O; Ac5c = NC1(C(=O)O)CCCC1; Aib = CC(C)(N)C(=O)O
Biological target: T1, P1R (recombinant P1R chimera) in HKRK-B28 cells (UniProt P25107+P25961, A364S/A509S/A517P/A524T/DEL519-521/E344G/G506A/H528S/I365V/I416T/I429T/K402R/K465R/L320I/M408V/N352H/S511P/S523T/T335G/T421L/T487S/V367L/V433I)
T1 construct: the opposum P1R from the N-terminus to the mid region of TM3; the rat P1R from the mid region of TM3 to the C-terminus; expressed in transfected cells
T1 sequence (P25107+P25961 fused with the stated changes): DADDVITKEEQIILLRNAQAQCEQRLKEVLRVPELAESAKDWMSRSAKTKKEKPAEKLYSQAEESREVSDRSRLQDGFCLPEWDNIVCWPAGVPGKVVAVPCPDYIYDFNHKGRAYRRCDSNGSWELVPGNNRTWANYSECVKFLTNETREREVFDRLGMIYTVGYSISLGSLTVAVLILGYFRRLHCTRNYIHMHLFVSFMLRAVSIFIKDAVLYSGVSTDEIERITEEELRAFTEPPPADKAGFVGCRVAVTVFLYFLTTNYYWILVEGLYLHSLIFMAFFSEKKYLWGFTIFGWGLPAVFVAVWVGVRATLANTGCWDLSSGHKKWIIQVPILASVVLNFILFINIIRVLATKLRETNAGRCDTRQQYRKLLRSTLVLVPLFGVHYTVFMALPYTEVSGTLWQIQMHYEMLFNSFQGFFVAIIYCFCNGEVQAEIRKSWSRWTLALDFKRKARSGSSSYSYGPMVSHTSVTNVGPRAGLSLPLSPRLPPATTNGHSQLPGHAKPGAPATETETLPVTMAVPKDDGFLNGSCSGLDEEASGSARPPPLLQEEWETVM
Test: biochemical
Assay type: binding, opposum/rat chimera
Details: B28 cells
Excerpt: Cell Culture. The cell line HKRK-B28 (Takasu, H., et al., J. Bone Miner. Res. 14:11-20 (1999)) was derived from the porcine kidney cell line, LLC-PK1 by stable transfection with plasmid DNA encoding a recombinant P1R chimera comprised of the opposum P1R from the N-terminus to the mid region of TM3 and the rat P1R from the mid region of TM3 to the C-terminus. The surface density of the P1R in these cells is ˜280,000 receptors per cell. The clonal cell line LdelNt-2 was derived from LLC-PK, cells via stable transfection with a plasmid encoding P1R-delNt, a recombinant human PTH-1 receptor construct in which most of the amino-terminal extracellular domain is deleted. These cells, as well as COS-7 cells and SaOS-2-B10 cells, were cultured at […] in T-75 flasks ([…]) in Dulbecco's modified Eagle's medium (DMEM) supplemented with fetal bovine serum (10%), penicillin G (20 units/ml), streptomycin sulfate (20 μg/ml) and amphotericin B (0.05 μg/ml) in a humidified atmosphere containing 5% CO2. Stock solutions of EGTA/trypsin and antibiotics were from GLBCO; fetal bovine serum was from Hyclone Laboratories (Logan, Utah). COS-7 cells sub-cultured in 24-well plates were transfected with plasmid DNA (200 ng per well) encoding the wild-type human P1R or truncated human P1R deleted for residues (24-181) (Shimizu, M., et al., J. Biol. Chem. 275:21836-21843 (2000)) that was purified by cesium chloride/ethidium bromide density gradient centrifugation, and FuGENE 6 transfection reagent (Roche Indianapolis Ind.) according to the manufacturer's recommended procedure. All cells, in 24-well plates, were treated with fresh media and shifted to 33° C. for 12 to 24 h prior to assay.
Competition Binding. Binding reactions were performed with HKRK-B28 cells or in COS-7 cells in 24-well plates. The cells were rinsed with 0.5 mL of binding buffer, and then treated successively with 100 μL binding buffer, 100 μL of binding buffer containing various amounts of unlabeled competitor ligand, and 100 μL of binding buffer containing ca. 100,000 cpm of ^125I-[Aib^1,3,Nle^8,Gln^10,Har^11,Ala^12,Trp^14,Arg^19,Tyr^21]rPTH(1-21) (SEQ. ID. NO. 36) (ca. 26 fmol; final volume=300 μL). Incubations were 4 to 6 h at 4° C., at which time near equilibrium conditions were attained. Cells were then placed on ice, the binding medium was removed, and the monolayer was rinsed three times with 0.5 mL of cold binding buffer. The cells were subsequently lysed with 0.5 mL 5N NaOH and counted for radioactivity. For each tracer and in each experiment, the non-specific binding was determined as the radioactivity that bound in the presence of the same unlabeled peptide at a concentration of 1 μM, and was ˜1% of total radioactivity added for each tracer. The maximum specific binding (B0) was the total radioactivity bound in the absence of competing ligand, corrected for nonspecific binding, and for each tracer, ranged from 8% to 20% of the total radioactivity added. Nonlinear regression was used to calculate binding IC50 values (see below). Scatchard transformations of homologous competition binding data derived from studies with 26 fmol of ^125I-[Aib^1,3,Nle^8,Gln^10,Har^11,Ala^12,Trp^14, Arg^19,Tyr^21]rPTH(1-21) (SEQ. ID. NO. 36) were employed for estimations of apparent equilibrium dissociation constant (kDapps) and total number of ligand binding sites (Bmax), assuming a single class of binding sites and equal affinities of the iodinated and non iodinated ligand.
Data Calculation. Calculations were performed using Microsoft® Excel. Nonlinear regression analyses of binding and cAMP dose-response data were performed using the four-parameter equation: yp=Min+[(Max−Min)/(1+(IC50/x)^slope)]. The Excel Solver function was utilized for parameter optimization, as described previously (Carter, P. H., et al., Endocrinology 140: 4972-4981 (1999); Bowen, W. P., and Jerman, J. C., Trends in Pharmacol. Sci. 16: 413-417 (1995)). […]

CC[C@H](C)[C@H](NC(=O)[C@H](CCC(=O)O)NC(=O)C(C)(C)NC(=O)[C@@H](NC(=O)C1(N)CCCC1)C(C)C)C(=O)N[C@@H](CCC(N)=O)C(=O)N[C@@H](CC(C)C)C(=O)N[C@@H](CCSC)C(=O)N[C@@H](Cc1c[nH]cn1)C(=O)N[C@@H](CCC(N)=O)C(=O)N[C@@H](CCCCNC(=N)N)C(=O)N[C@@H](C)C(=O)N[C@@H](CCCCN)C(=O)N[C@@H](Cc1c[nH]c2ccccc12)C(N)=O [[Ac5c^1,Aib^3,M]PTH(1-14), [Ac5c^1,Aib^3,Gln^10,Har^11,Ala^12,Trp^14]PTH(1-14)NH2] (H-[Ac5c]V[Aib]EIQLMHQ[hArg]AKW-NH2)
potency for inhibiting tracer binding relative to [Aib1,3,M]PTH(1-14): 2 fold
